Target: T1, BRD9 (Homo sapiens, UniProt Q9H8M2)
T1 sequence (Q9H8M2 1-597): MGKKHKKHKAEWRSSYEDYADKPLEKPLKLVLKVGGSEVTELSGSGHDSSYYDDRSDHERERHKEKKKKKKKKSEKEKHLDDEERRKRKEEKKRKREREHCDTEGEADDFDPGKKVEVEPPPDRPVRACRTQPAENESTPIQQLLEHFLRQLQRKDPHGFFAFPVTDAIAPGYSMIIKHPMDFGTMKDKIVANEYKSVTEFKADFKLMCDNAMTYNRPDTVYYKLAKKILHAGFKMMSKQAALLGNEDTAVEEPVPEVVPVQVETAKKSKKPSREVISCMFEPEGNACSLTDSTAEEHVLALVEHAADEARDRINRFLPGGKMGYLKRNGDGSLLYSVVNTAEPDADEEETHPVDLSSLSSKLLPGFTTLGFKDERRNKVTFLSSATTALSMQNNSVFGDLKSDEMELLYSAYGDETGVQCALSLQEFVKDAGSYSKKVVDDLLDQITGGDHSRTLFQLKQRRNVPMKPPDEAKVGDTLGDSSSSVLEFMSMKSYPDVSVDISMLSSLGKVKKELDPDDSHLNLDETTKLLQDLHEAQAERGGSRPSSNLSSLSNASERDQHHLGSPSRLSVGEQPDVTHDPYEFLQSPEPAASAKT
Assay: Degradation of BRD9 (IF), immunofluorescence in MV4-11 cells, 24 hours (Assay Protocol 2)
Format: cell-based
Design: A suspension of MV4-11 cells (ATCC CRL-9591) was prepared; host or cells: MV4-11
Details: BRD9 degradation; for DC50: Assay protocol 2, read-out: DC50; for Dmax: MV4-11, Assay protocol 2, read-out: Dmax
How it was run: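 MV4-11 cells treated with compound 24 h at 37° C., then fixed, permeabilised and immunostained for BRD9 (anti-BRD9 E4Q3F, Alexa 647 secondary, Hoechst counterstain). High-content imaging quantified nuclear BRD9 signal; % BRD9 remaining normalised to DMSO and 100 nM CFT-8634 controls.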

Row | SMILES | DC50 [nM] | Dmax [%]
1 | COc1cc(-c2cn(C)c(=O)c(C)c2C)cc(OC)c1CN1CCN(Cc2cccc3c2CCN(C(=O)/C(C#N)=C/C2CCOCC2)C3C)CC1 (mixture of isomers) [Compound B69, (E/Z)-2-(5-((4-(2,6-dimethoxy-4-(1,4,5-trimethyl-6-oxo-1,6-dihydropyridin-3-yl)benzyl)piperazin-1-yl)methyl)-1-methyl-1,2,3,4-tetrahydroisoquinoline-2-carbonyl)-3-(tetrahydro-2H-pyran-4-yl)acrylonitrile] | 1.25 to 10 | 40 to 70
2 | COc1cc(-c2cn(C)c(=O)c(C)c2C)cc(OC)c1CN1CCN(C(=O)COCCOc2ccc3c(c2)C(C)N(C(=O)/C(C#N)=C/c2nccs2)CC3)CC1 (mixture of isomers) [Compound B83, (E/Z)-2-(7-(2-(2-(4-(2,6-dimethoxy-4-(1,4,5-trimethyl-6-oxo-1,6-dihydropyridin-3-yl)benzyl)piperazin-1-yl)-2-oxoethoxy)ethoxy)-1-methyl-1,2,3,4-tetrahydroisoquinoline-2-carbonyl)-3-(thiazol-2-yl)acrylonitrile] | 1.25 to 10 | > 75
3 | COc1cc(-c2cn(C)c(=O)c(C)c2C)cc(OC)c1CN1CCC2(CCN(c3ccc4c(c3)[C@H](C)N(C(=O)/C(C#N)=C/C(C)(C)C)CC4)CC2)C1 [Compound C54] | 25 to 1000 | 40 to 70
4 | CCC1c2cccc(CN3CCN(Cc4c(OC)cc(-c5cn(C)c(=O)c(C)c5C)cc4OC)CC34CC4)c2CCN1C(=O)/C(C#N)=C/C(C)(C)C (single isomer, unassigned) [Compound C94, (E/Z)-2-(5-((7-(2,6-dimethoxy-4-(1,4,5-trimethyl-6-oxo-1,6-dihydropyridin-3-yl)benzyl)-4,7-diazaspiro[2.5]octan-4-yl)methyl)-1-ethyl-1,2,3,4-tetrahydroisoquinoline-2-carbonyl)-4,4-dimethylpent-2-enenitrile] | < 1.25 | > 75
5 | COc1cc(-c2cn(C)c(=O)c(C)c2C)cc(OC)c1C(=O)N1CCCN(Cc2cccc3c2CCN(C(=O)/C(C#N)=C/C(C)(C)C)C3C)CC1 (mixture of isomers) [Compound B65, (E/Z)-2-(5-((4-(2,6-dimethoxy-4-(1,4,5-trimethyl-6-oxo-1,6-dihydropyridin-3-yl)benzoyl)-1,4-diazepan-1-yl)methyl)-1-methyl-1,2,3,4-tetrahydroisoquinoline-2-carbonyl)-4,4-dimethylpent-2-enenitrile] | 1.25 to 10 | > 75
6 | COc1cc(-c2cn(C)c(=O)c(C)c2C)cc(OC)c1CN1CCN(Cc2cccc3c2CCN(C(=O)/C(C#N)=C/C2(C)CCC2)C3C)CC1 (mixture of isomers) [Compound B76, (E/Z)-2-(5-((4-(2,6-dimethoxy-4-(1,4,5-trimethyl-6-oxo-1,6-dihydropyridin-3-yl)benzyl)piperazin-1-yl)methyl)-1-methyl-1,2,3,4-tetrahydroisoquinoline-2-carbonyl)-3-(1-methylcyclobutyl)acrylonitrile] | 1.25 to 10 | 40 to 70
7 | COc1cc(-c2cn(C)c(=O)c(C)c2C)cc(OC)c1CN1CCN(Cc2cccc3c2CCN(C(=O)/C(C#N)=C/C(C)(C)C)C3C)[C@H](C)C1 (mixture of isomers) [Compound B119, (E/Z)-2-(5-(((R)-4-(2,6-dimethoxy-4-(1,4,5-trimethyl-6-oxo-1,6-dihydropyridin-3-yl)benzyl)-2-methylpiperazin-1-yl)methyl)-1-methyl-1,2,3,4-tetrahydroisoquinoline-2-carbonyl)-4,4-dimethylpent-2-enenitrile] | 10 to 25 | 40 to 70
8 | COc1cc(-c2cn(C)c(=O)c(C)c2C)cc(OC)c1CN1CCN(Cc2ccc3c(c2)[C@@H](C)N(C(=O)/C(C#N)=C/C(C)(C)O)CC3)C2(CC2)C1 (single isomer, unassigned) [Compound C39, (E/Z)-2-(7-((7-(2,6-dimethoxy-4-(1,4,5-trimethyl-6-oxo-1,6-dihydropyridin-3-yl)benzyl)-4,7-diazaspiro[2.5]octan-4-yl)methyl)-1-methyl-1,2,3,4-tetrahydroisoquinoline-2-carbonyl)-4-hydroxy-4-methylpent-2-enenitrile] | < 1.25 | > 75
9 | COc1cc(-c2cn(C)c(=O)c(C)c2C)ccc1OC1CCN(Cc2cccc3c2CCN(C(=O)/C(C#N)=C/C(C)(C)C)[C@H]3C)CC1 (single isomer, unassigned) [Compound C31, (E/Z)-2-(5-((4-(2-methoxy-4-(1,4,5-trimethyl-6-oxo-1,6-dihydropyridin-3-yl)phenoxy)piperidin-1-yl)methyl)-1-methyl-1,2,3,4-tetrahydroisoquinoline-2-carbonyl)-4,4-dimethylpent-2-enenitrile] | 1.25 to 10 | > 75
10 | COc1cc(-c2cn(C)c(=O)c(C)c2C)cc(OC)c1CN1CC2CC(C1)N2Cc1ccc2c(c1)[C@H](C)N(C(=O)/C(C#N)=C/C(C)(C)C)CC2 (single isomer, unassigned) [Compound C63, (E/Z)-2-(7-((3-(2,6-dimethoxy-4-(1,4,5-trimethyl-6-oxo-1,6-dihydropyridin-3-yl)benzyl)-3,6-diazabicyclo[3.1.1]heptan-6-yl)methyl)-1-methyl-1,2,3,4-tetrahydroisoquinoline-2-carbonyl)-4,4-dimethylpent-2-enenitrile] | 1.25 to 10 | > 75
11 | CC[C@@H]1c2cccc(CN3CCN(Cc4c(OC)cc(-c5cn(C)c(=O)c(C)c5C)cc4OC)C4(CC4)C3)c2CCN1C(=O)/C(C#N)=C/C(C)(C)CF (single isomer, unassigned) [Compound C105, (E/Z)-2-(5-((4-(2,6-dimethoxy-4-(1,4,5-trimethyl-6-oxo-1,6-dihydropyridin-3-yl)benzyl)-4,7-diazaspiro[2.5]octan-7-yl)methyl)-1-ethyl-1,2,3,4-tetrahydroisoquinoline-2-carbonyl)-6-fluoro-4,4-dimethylpent-2-enenitrile] | < 1.25 | > 75
12 | COc1cc(-c2cn(C)c(=O)c3[nH]ncc23)cc(OC)c1CN1CCN(C(=O)/C(C#N)=C/C(C)(C)C)CC1 [Compound B215, (E/Z)-2-(4-(2,6-dimethoxy-4-(6-methyl-7-oxo-6,7-dihydro-1H-pyrazolo[3,4-c]pyridin-4-yl)benzyl)piperazine-1-carbonyl)-4,4-dimethylpent-2-enenitrile] | 25 to 1000 | 40 to 70
13 | COc1cc(-c2cn(C)c(=O)c(C)c2C)cc(OC)c1CN1CCN(Cc2cccc3c2CCN(C(=O)/C(C#N)=C/C(C)(C)C)C3)C2(CC2)C1 [Compound C2, (E/Z)-2-(5-((7-(2,6-dimethoxy-4-(1,4,5-trimethyl-6-oxo-1,6-dihydropyridin-3-yl)benzyl)-4,7-diazaspiro[2.5]octan-4-yl)methyl)-1,2,3,4-tetrahydroisoquinoline-2-carbonyl)-4,4-dimethylpent-2-enenitrile] | 1.25 to 10 | > 75
14 | COc1cc(-c2cn(C)c(=O)c(C)c2C)cc(OC)c1CN1CCN(Cc2cccc3c2CCN(C(=O)/C(C#N)=C/C2(C)CCOCC2)C3C(C)C)C2(CC2)C1 (mixture of isomers) [Compound C23, (E/Z)-2-(5-((7-(2,6-dimethoxy-4-(1,4,5-trimethyl-6-oxo-1,6-dihydropyridin-3-yl)benzyl)-4,7-diazaspiro[2.5]octan-4-yl)methyl)-1-isopropyl-1,2,3,4-tetrahydroisoquinoline-2-carbonyl)-3-(4-methyltetrahydro-2H-pyran-4-yl)acrylonitrile] | < 1.25 | > 75
15 | COc1cc(-c2cn(C)c(=O)c(C)c2C)cc(OC)c1CN1CCN(Cc2ccc3c(c2)[C@@H](C)N(C(=O)/C(C#N)=C/C(C)(C)CF)CC3)CC12CC2 (single isomer, unassigned) [Compound C34] | 25 to 1000 | 40 to 70
16 | COc1cc(-c2cn(C)c(=O)c(C)c2C)cc(OC)c1CN(C)Cc1cccc2c1CCN(C(=O)/C(C#N)=C/C(C)(C)C)C2C(C)C (mixture of isomers) [Compound C95, (E/Z)-2-(5-(((2,6-dimethoxy-4-(1,4,5-trimethyl-6-oxo-1,6-dihydropyridin-3-yl)benzyl)(methyl)amino)methyl)-1-isopropyl-1,2,3,4-tetrahydroisoquinoline-2-carbonyl)-4,4-dimethylpent-2-enenitrile] | 10 to 25 | 40 to 70
17 | COc1cc(-c2cn(C)c(=O)c(C)c2C)cc(OC)c1CN1CCC2(CC1)CCN(c1cccc3c1CCN(C(=O)/C(C#N)=C/C(C)(C)C)[C@@H]3C)C2 [Compound C47] | 1.25 to 10 | > 75
18 | COc1cc(-c2cn(C)c(=O)c(C)c2C)cc(OC)c1CN1CCN(Cc2cccc3c2CCN(C(=O)/C(C#N)=C/C(C)(C)C(F)(F)F)C3C)C2(CC2)C1 (mixture of isomers) [Compound B152, (E/Z)-2-(5-((7-(2,6-dimethoxy-4-(1,4,5-trimethyl-6-oxo-1,6-dihydropyridin-3-yl)benzyl)-4,7-diazaspiro[2.5]octan-4-yl)methyl)-1-methyl-1,2,3,4-tetrahydroisoquinoline-2-carbonyl)-5,5,5-trifluoro-4,4-dimethylpent-2-enenitrile] | 1.25 to 10 | > 75
